Reference: patent publication US20220133701A1, “METHODS OF TREATING PAIN” (Yeda Research and Development Co. Ltd., priority 2019, published 2022)
Entries after “also recorded” stand apart in the source; their conditions may differ.

T1: importin α3 (endogenous, mouse DRG sensory neurons) (mouse, UniProt O35343 2-521)
T1 construct: whole, on cells; Endogenous protein detected in fixed neurons with a rabbit polyclonal anti-importin α3 antibody in the proximity ligation assay; The protein is intracellular, not on the cell surface; also called Impα3; Karyopherin Subunit Alpha 4
T1 sequence (looked up): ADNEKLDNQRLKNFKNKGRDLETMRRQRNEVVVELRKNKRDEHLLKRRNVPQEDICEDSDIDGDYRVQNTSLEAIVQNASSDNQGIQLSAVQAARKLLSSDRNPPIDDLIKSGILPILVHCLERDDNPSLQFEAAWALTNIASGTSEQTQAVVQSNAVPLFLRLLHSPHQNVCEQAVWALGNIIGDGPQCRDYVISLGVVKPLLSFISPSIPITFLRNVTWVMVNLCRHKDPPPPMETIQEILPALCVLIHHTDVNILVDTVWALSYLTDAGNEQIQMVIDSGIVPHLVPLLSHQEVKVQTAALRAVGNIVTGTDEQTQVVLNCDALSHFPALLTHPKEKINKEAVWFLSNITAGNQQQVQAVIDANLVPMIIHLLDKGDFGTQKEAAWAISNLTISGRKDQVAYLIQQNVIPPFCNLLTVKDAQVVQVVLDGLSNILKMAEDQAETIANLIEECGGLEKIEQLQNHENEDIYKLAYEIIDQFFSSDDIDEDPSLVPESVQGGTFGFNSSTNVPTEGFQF

B1: c-Fos (other, mouse, UniProt P01101 1-380, looked up)
chain: MMFSGFNADYEASSSRCSSASPAGDSLSYYHSPADSFSSMGSPVNTQDFCADLSVSSANFIPTVTAISTSPDLQWLVQPTLVSSVAPSQTRAPHPYGLPTQSAGAYARAGMVKTVSGGRAQSIGRRGKVEQLSPEEEEKRRIRRERNKMAAAKCRNRRRELTDTLQAETDQLEDEKSALQTEIANLLKEKEKLEFILAAHRPACKIPDDLGFPEEMSVASLDLTGGLPEASTPESEEAFTLPLLNDPEPKPSLEPVKSISNVELKAEPFDDFLFPASSRPSGSETSRSVPDVDLSGSFYAADWEPLHSNSLGMGPMVTELEPLCTPVVTCTPGCTTYTSSFVFTYPEADSFPSCAAAHRKGSSSNEPSSDSLSSPTLLAL
notes: whole, on cells; Endogenous protein in both assays; The protein is intracellular, not on the cell surface
B2: shFOS1: AAV9 shRNA targeting c-Fos, SEQ ID NO: 17 (nucleic acid)
DNA: GATCCGGCGGAGACAGATCAACTTGAAGAAGCTTGTTCAAGTTGATCTGTCTCCGCCTTTTTTT

Experiments:
[1] = tested on: mice; experiment: Response to noxious heat (metal probe heated to 58° C. applied to paw, paw withdrawal latency); type: in vivo, mouse; settings: for responsiveness to noxious heat: WT mice, 1 hour following i.p. injection, sulmazole 0.5 mg/kg, sulfamethizole 1.25 mg/kg (FIG. 8A)
Procedure: Pain Models—Responses to noxious heat were assessed by applying a metal probe heated to 58° C. to a forelimb paw, while holding the animal. Paw withdrawal latency was timed, typically ranging between 2-4 seconds in wild-type animals. If the paw was not withdrawn within 20 seconds the assay was terminated. The test was repeated three times for each animal, with at least 20 minute intervals between repeats. Heat sensitivity was also assessed using the hot plate test [L. Urien et al., Sci Rep 7, 43493 (2017)]. To this end, mice were placed individually in a 20 cm high Plexiglas box on a metal surface set at 52, 55 or 58° C., and the latency to initiate a nociceptive response (licking, hind paws shaking, jumping) was monitored by videotape. Mice were removed from the plate immediately after a nociceptive response.

[2] = tested on: SNI mice; experiment: Spared nerve injury (SNI) model of neuropathic pain, paw withdrawal threshold (PWT) by Von Frey test; type: in vivo, mouse; settings: for paw withdrawal threshold (PWT) by the Von Frey test: SNI, 60 days following establishing the model, two i.p. injections with 1 week interval, sulmazole 1.25 mg/kg, sulfamethizole 3.12 mg/kg, vs vehicle (FIG. 8B); for relief in the SNI model of neuropathic pain: intraperitoneal injection at both early and late stages of chronic pain (FIGS. 8B, 21A-B, 22A-B); for mechanosensitivity, paw withdrawal threshold by Von Frey test, dose dependence: one hour following i.p. treatment, one week following establishing SNI (FIGS. 21A-B); for mechanosensitivity, Von Frey tests, time dependence: one week after SNI, 1, 5 and 24 hours following i.p. injection (FIGS. 22A-B)
Procedure: (§1) Chronic neuropathic pain was assessed using the spared nerve injury (SNI) model^13. Mice were anaesthetized with Ketamine/Xylazine (10 mg/kg body weight, intraperitoneal). The skin on the lateral surface of the thigh was incised and a section was made directly through the biceps femoris muscle in order to expose the sciatic nerve and its three terminal branches: the sural, common peroneal and tibial nerves. The SNI procedure comprised an axotomy and ligation of the tibial and common peroneal nerves leaving the sural nerve intact. The peroneal and the tibial nerves were tight-ligated and sectioned distal to the ligation. […] Following, mice were evaluated over a period of three months.
(§2) Von Frey tests of sensitivity to mechanical stimuli were conducted as previously described [Marvaldi et al. Dev Neurobiol 75, 217 (2015)]. Briefly, mice were placed in acrylic chambers suspended above a wire mesh grid and allowed to habituate to the testing apparatus for one hour prior to experiments. When the mouse was calm, the von Frey filaments were pressed against the plantar surface of the paw until the filament buckled and held for a maximum of 3 seconds. A positive response was noted if the paw was sharply withdrawn on application of the filament. Testing began with filament target force 13.7 milliNewtons and progressed according to an up-down method. 2 gram Von Frey filaments were used to assess sensitivity to noxious mechanical stimulation, scoring mice responses as follows: 0, no response; 1, visible signs of discomfort without leg withdrawal; 2, withdrawal of the leg.

[3] = tested on: SNI mice; experiment: Noxious mechanosensitivity of SNI mice, Von Frey filaments of 2 grams force, score 0-2; type: in vivo, mouse; settings: score 0 to 2 (FIG. 22C)
Procedure: as §1
as §2, with “2 gram Von Frey filaments were used to assess sensitivity to noxious mechanical stimulation, scoring mice responses as follows: 0, no response; 1, visible signs of discomfort without leg withdrawal; 2, withdrawal of the leg.” left out

[4] = tested on: c-Fos nuclear localization in DRG neurons; experiment: c-Fos nuclear localization in cultured DRG neurons (immunostaining, quantified); type: cell-based, mouse; settings: sulmazole 0.5 mg/kg; for c-Fos nuclear accumulation: importin α3 null DRG neurons cultured following SNI, sulfamethizole 1.25 mg/kg (FIG. 9); for c-Fos nuclear localization: wild type DRG neurons cultured following SNI, sulfamethizole 1.25 mg/kg, vs vehicle (FIGS. 8C-D)
Procedure: Histology—Lumbar sections of the spinal cord including Dorsal root ganglia (DRGs) were pre-fixed for 6 minutes before dissection of spinal cord and associated DRGs. Lumbar DRG (L4, unless otherwise indicated) and/or spinal cord were then fixed for six hours in 4% PFA in PBS, washed in PBS and equilibrated in 20% w/v sucrose in PBS prior to serial cryo-sectioning at a thickness of 10-20 μm. Following, one set for each DRG was processed for immunostaining. Briefly, sections were rehydrated in PBS, blocked and permeabilized with 15% Donkey Serum, 5-10% BSA, 0.3% Triton X-100 in PBS for 1-3 hours and incubated overnight at 4° C. with Mouse anti-βIII tubulin (TuJ1, abcam, ab18207), Rabbit anti-cFos (Millipore, Ab5, 4-17), Mouse anti-cFOS (Millipore Ab5 4-17, IF 1:500), Mouse anti-Jun (BD transduction Laboratories, IF 1:1000), Rabbit TRPV1 (Alomone ACC-030, 1:500), Rabbit anti-GFP (abcam, ab6556, IF & WB1:500), Goat anti-CGRP (AbD SEROTEC, 1720-9007), MBP (Abcam ab7349, IF 1:500) or Rabbit anti-importin α3 (1:2000) antibodies. On the following day, sections were washed three times in PBS prior to incubation for 2 hours with different combinations of donkey anti-chicken/rabbit/mouse secondary antibodies (Alexa Fluor 647, 594, 488; Jackson Immunoresearch, 1:1000). Following, coverslips or slides were washed and mounted with Flouromount-G™.
Image processing—Images were acquired on a confocal laser-scanning microscope (Olympus FV1000, 60× oil-immersion objective Olympus UPLSAPO-NA 1.35) using Fluoview (FV10-ASW 4.1) software. DRG sections were scanned using camera settings identical for all genotypes in a given experiment. Images were imported into the Fiji version (www(dot)//fiji(dot)sc) of ImageJ for threshold subtraction and subsequent analyses as detailed below.
Fluorescence Intensity Analysis: Line scan analysis of fluorescence intensity was carried out on high-resolution confocal z-stack from DRG sections to determine fluorescence intensity of c-FOS and importin α3 over cell regions of interest in-vivo. Briefly, the measurement (in pixels) was effected using the ImageJ drawing tool to draw a line across a neuronal segment covering both cytoplasm and nucleus. All collected traces were then averaged for each experimental group. For comparison of nuclear and cytoplasmic staining intensity 8-bit images of either DRG sections or DRG cultured neurons were processed using the Fiji software. The integrated density was calculated as the sum of the values of the pixels in both cytoplasmic and nuclear regions of interest determined on the basis of TuJ-1, CGRP, TRPV1 or DAPI staining, respectively.
Neuronal cultures—Adult mouse DRG neurons were cultured as previously described [Perry et al. Neuron 75, 294 (2012)], with plating on poly-L-lysine and laminin coated plates or glass cover slips for 24 hours. Where required, L3-L5 DRG neurons from the uninjured side served as controls for cultures from SNI mice.

[5] = molecular target: T1, importin α3 (endogenous, mouse DRG …); experiment: proximity ligation assay of endogenous proteins in cultured DRG sensory neurons
Procedure: Proximity Ligation Assay (PLA) in DRG cultures—The Proximity Ligation Assay (PLA) is used to detect spatial proximity within ˜40 nm of two proteins of interest [O. Söderberg et al., Nature Methods 3, 995-1000 (2006)]. DRG neurons were cultured for 24 hours and fixed for 20 minutes in 4% PFA before blocking and permeabilization with 5% Donkey Serum, 1% BSA, 0. 1% Triton X-100 in PBS for 1 hour. They were then incubated with anti-c-Fos (mouse monocolonal 1:1000, Abcam ab208942) and anti-importin α3 (rabbit polyclonal, 1:2000, Michael Bader lab′, MDC Berlin) overnight at 4° C. PLA was performed using Duolink (Sigma: PLA probe anti-mouse minus DU092004, anti-rabbit plus DU092002 with detection using Far-Red DU092013), according to the manufacturer's instructions. Identification of PLA signal within neurons was effected by subsequent immunostaining with goat anti-CGRP (AbD SEROTEC 1720-9007, IF 1:1000) for 60 minutes at room temperature, followed by three washes and an additional 60 minutes incubation with donkey anti-goat Alexa Fluor 488 (Jackson Immunoresearch, 1:1000). Cells were then washed, mounted with Flouromount-G (ThermoFisher Scientific, cat. #00-4958-02) and imaged by confocal microscopy (Olympus FV1000, 60× oil-immersion objective Olympus UPLSAPO-NA 1.35). PLA signals were quantified by counting puncta in ImageJ. […]

Row | Molecule | responsiveness to noxious heat [1] | paw withdrawal threshold (PWT) by the Von Frey test [2] | relief in the SNI model of neuropathic pain [2] | mechanosensitivity, paw withdrawal threshold by Von Frey test, dose dependence [2] | mechanosensitivity, Von Frey tests, time dependence [2] | response of SNI injured animals to a noxious mechanical stimulus [3] | c-Fos nuclear accumulation [4] | c-Fos nuclear localization [4] | other results
1 | O=C(O)CCc1cc(C(=O)c2ccc(OC3CCCC3)cc2O)ccc1OCc1ccc2c(=O)[nH]oc2c1 [T-5224] |  |  |  |  |  |  |  |  | response to noxious heat ([1]; WT (+/+) mice, 20 mg/kg, i.p. (FIGS. 6J-K)): reduced the response to noxious heat; response to noxious heat ([1]; importin α3 null (−/−) mice, 20 mg/kg, i.p. (FIGS. 6J-K)): no additional effect beyond the already existing attenuation; paw withdrawal threshold (PWT) in response to noxious heat ([1]; wild-type mice, i.p. at the indicated doses, over eight days post-treatment (FIGS. 7A-B)): reduced paw withdrawal in response to noxious heat; also recorded: most marked effect was observed one day following injection of a dose of 10 mg/kg; paw withdrawal in Von Frey tests ([2]; wild type animals one week following induction of SNI, 10 mg/kg (FIG. 18)): did ameliorate the paw withdrawal latency
2 | NCC1(CC(=O)O)CCCCC1 [gabapentin] |  |  |  |  |  |  |  |  | paw withdrawal threshold (PWT) in Von Frey tests ([2]; SNI mice, 100 mg/kg intraperitoneal two months following establishment of the model, again one week later (FIG. 2D)): significant amelioration of the phenotype
3 | Cc1nnc(NS(=O)(=O)c2ccc(N)cc2)s1 [sulfamethizole, 4-Amino-N-(5-methyl-1,3,4-thiadiazol-2-yl)benzenesulfonamide] | showed efficacy in the assay | significant effects | time and dose-dependent relief | dose dependent effects | time dependent effects | provided relief in this assay that was comparable to that provided by knockout or knockdown of importin α3 | neither drug had any further effect | significantly reduced c-Fos nuclear accumulation | c-Fos nuclear localization ([4]; listed as Sulfamethizole): Significant reductions in c-Fos nuclear localization
4 | COc1cc([S+](C)[O-])ccc1-c1nc2ncccc2[nH]1 (stereo not shown) [sulmazole, 2-(2-Methoxy-4-[methylsulfinyl]phenyl)-1H-imidazo(4,5-b)pyridine] | showed efficacy in the assay | significant effects | time and dose-dependent relief | dose dependent effects | time dependent effects | provided relief in this assay that was comparable to that provided by knockout or knockdown of importin α3 | neither drug had any further effect | significantly reduced c-Fos nuclear accumulation | c-Fos nuclear localization ([4]; listed as Sulmazole): Significant reductions in c-Fos nuclear localization
5 | B1 |  |  |  |  |  |  |  |  | binding result [5]: binds
6 | B2 |  |  |  |  |  |  |  |  | response to noxious heat ([1]; wild type mice after intrathecal injection of AAV9 construct, vs control construct): reduced noxious heat responses
